According to US20090068143A1, “ORALLY EFFECTIVE C[…]” (priority 2005, published 2009):
Marks after values point to notes of the source that are not given here.

Tests used:
CB1 = assay: Real-time RT-PCR gene expression in CNS of MOG induced EAE: CB1; assay type: in vivo, mouse; details: 40 mg/kg p.o., day 31; over naive animals, normalized to cyclophilin
Description: (§1) Total RNA is prepared using SV total RNA isolation system (Promega). The brains and spinal cords, which were removed on day 31 from five animals treated with vehicle (i.e. untreated) or 40 mg/kg p.o. of compound 18F (i.e. treated) in the MOG-induced EAE study, were homogenized in lysis buffer. The lysates were transferred to an RNA isolation column, treated with DNAse, washed and eluted according to kit instructions. RNA concentrations were determined using GeneQuant II (Pharmacia-Amersham). Complementary DNA (cDNA) was synthesized from total RNA using […] II reverse transcriptase (Life Technologies). […] Quantitative real-time RT-PCR included 1 μl of the cDNA, 300 nM of the appropriate forward and reverse primers (according to the gene monitored) and 7.5 μl of the reaction mix containing buffer, nucleotides, Taq polymerase and SYBER green (SYBER Green master mix, Applied Biosystems), in a total reaction volume of 15 μl. […] During each annealing step, the amount of the amplified product was measured by the fluorescence of the double strand DNA binding dye, SYBER Green. The cycle of threshold (CT), representing the PCR cycle at which an increase in fluorescence above a baseline signal can be first detected, was determined for each product. […] Results were expressed as fold increase of gene expression in treated or untreated animals above the naive animals. […]

CB2 = assay: Real-time RT-PCR gene expression in CNS of MOG induced EAE: CB2; assay type: in vivo, mouse; details: 40 mg/kg p.o., day 31, over naive animals
Description: as §1

MCP-1 = assay: Real-time RT-PCR gene expression in CNS of MOG induced EAE: MCP-1; assay type: in vivo, mouse; details: 40 mg/kg p.o., day 31, over naive animals
Description: as §1

[1] = system: chronic constriction induced neuropathic pain; assay: Chronic constriction induced neuropathic pain (Von Frey filaments); assay type: in vivo, Sprague-Dawley rats
From the text: A peripheral monopathy was induced in the right hind limb of rats following a chronic constriction of the sciatic nerve according to Bennet et al. [Bennet, G. J. & Xie, Y-K., Pain 33: 87-107, 1988]. The development of mechanical allodyna was monitored using an established behavioral test (Von Frey filaments).
Pre-surgery baseline values were ascertained as the mean of 2 pre-surgery values. Once the baseline values had been established, the animals were surgically prepared by constricting the right sciatic nerve with 4 chromic cat gut loose ligatures. On day 11 post-operation, the animals that have developed mechanical allodyna were arbitrarily allocated to the various treatment groups based on the pre-surgery values.
The design was randomized, performed in a masked fashion as to whether drug or vehicle is being given. The animals, male Sprague-Dawley rats (average body weight 240-290 g, Harlan, Israel), were allowed to acclimatize to the behavioral testing equipment prior to testing. […] The filaments were applied in ascending order starting with the weakest force and the withdrawal threshold for both the ipsilateral and contralateral hind paws was evaluated. […] The withdrawal threshold is defined as being the lowest force of two or more consecutive Von Frey's filaments to elicit a reflex withdrawal response (i.e. a brief paw flick) and is measured in grams.

[2] = system: Taxol® induced neuropathic pain; assay: Taxol® induced neuropathic pain; assay type: in vivo, Sprague Dawley rats
Description: Male Sprague Dawley rats (average body weight 150-200 g, Harlan, Israel) were administered i.p. with 6 mg/kg Taxol® (Bristol Myers Squibb, USA) every other day for 9 days. On day 13, baseline pain threshold was measured. One hour later, the animals were administered with 5 ml/kg i.p. of vehicle (PB) only and pain threshold was re-established. After an additional hour animals were treated with various doses of compound 18F ranging from 0.5 mg/kg up to 10 mg/kg administered i.p. Morphine at 5 mg/kg i.p. and gabapentin at 100 mg/kg i.p served as positive controls. Each treatment group comprised at least eight animals. One hour post drug administration pain threshold was monitored using thermal and mechanical stimuli as previously described. At the end of the study, rats were euthanized with sodium pentobarbitone 100 mg/kg i.p. Sample rats were then transfused with saline and heparinized 4% formaldehyde solution. The L4-L5 area of the spinal cord and the sciatic nerve were taken for histopathology assessment.
The time latencies for thermal hyperalgesia, and force needed to induce pain of the different treatment groups are compared, using one way ANOVA (analysis of variance), followed by Duncan's post hoc test. A p<0.05 value was considered statistically significant and is indicated on the figure by an asterisk over the relevant treatment group.

ICR male mice = assay: Tetrad Assay (safety)
[3] = system: PLP induced remitting-relapsing EAE; assay: PLP induced remitting-relapsing EAE

## CCCCCCC(C)(C)c1cc(O)c([C@H]2CC(=O)C3CC2C3(C)C)c(OC(=O)/C=C/C(=O)O)c1 (single isomer, unassigned; (-)) [Compound 18F, (−)-4-{4-[1,1-Dimethylheptyl]-2-fumarate-6-hydroxy-phenyl}-6,6-dimethyl-bicyclo[3.1.1]heptan-2-one]
CB1
  Fold gene expression CB1, Brain, Treated: 1 fold
  Fold gene expression CB1, Spinal Cord, Treated: 1 fold
CB2
  Fold gene expression CB2, Spinal Cord, Treated: 2 fold
CB2; untreated −13
  Fold gene expression CB2, Brain, Treated: 1* fold
MCP-1
  Fold gene expression MCP-1, Brain, Treated: 5.5 fold
MCP-1; untreated 19
  Fold gene expression MCP-1, Spinal Cord, Treated: 68 fold
[1]; 20 mg/kg p.o.
  effect on neuropathic pain: little effect
[1]; 40 mg/kg p.o.
  effect on neuropathic pain: as strong as 5 mg/kg morphine administered subcutaneously
[2]; 10 mg/kg i.p., baseline 15 gm, untreated 5 gm
  effect on pain threshold: increased the pain threshold back to pre-Taxol® baseline
[2]; 1, 5 and 10 mg/kg i.p.
  effect on pain threshold versus vehicle: statistically significant from the vehicle treated animals
ICR male mice; 30, 60, 80 and 100 mg/kg p.o.
  body temperature: transient hypothermia
ICR male mice; 30 and 60 mg/kg p.o.
  time to regain normothermia: ≤ 24 h
ICR male mice; 80 and 100 mg/kg p.o.
  body temperature below baseline at the end of follow-up period: 2 °C
ICR male mice; doses of up to 60 mg/kg p.o.
  safety at therapeutically effective doses: found to be safe
ICR male mice; p.o., up to maximal dose tested of 100 mg/kg
  catalepsy and spontaneous or forced locomotor activity: no effect
[3]; 40 mg/kg p.o. daily for 25 days
  relapse postponed as compared to controls: 5 to 7 days
[3]; 40 mg/kg p.o. daily for 25 days from day 25, controls 0.7 and 0.8
  clinical score of the second peak: 0.5
[3]; 40 mg/kg p.o. for 25 days
  side effects: No side effects were observed
[3]; 40 mg/kg p.o., day 35 to day 58, control 8.1
  AUC of clinical score: 2.1
[3]; 40 mg/kg p.o., day 35 to day 58, p=0.0025
  reduction in AUC as compared to control: 74%
[3]; 40 mg/kg p.o., day 38 till end of study
  average reduction of clinical score: 28%
